Measurements taken from paper PMC8074792, “An ω-3, but Not an ω-6 Polyunsaturated Fatty Acid Decreases Membrane Dipole Potential and Stimulates Endo-Lysosomal Escape of Penetratin” (Frontiers in Cell and Developmental Biology, 2021).

Legend:
Format in all cases: cell-based, human
[1] = system: JY cells; assay: Membrane dipole potential, di-8-ANEPPS excitation ratio, spectrofluorometry; conditions: fatty acid 12.5-50 μM for 48 h, result at maximal 50 μM, n = 5
Experimental: (§1) The human acute monocytic leukemia-derived cell line THP-1 and the human Epstein-Barr virus (EBV) transformed lymphoblastoid cell line JY were obtained from the American Type Culture Collection (Manassas, VA, United States) and cultivated according to their specifications. […] As controls, cells were treated with the corresponding amounts of native MβCD complexes not containing sterols. To study the effects of fatty acids, cells were incubated for 48 h in medium supplemented with saturated stearic acid (SA, Sigma Aldrich), ω-3 polyunsaturated α-linolenic acid (ALA, Sigma Aldrich) or ω-6 polyunsaturated γ-linolenic acid (GLA, Sigma Aldrich) at various concentrations ranging from 12.5 to 50 μM. […] After washing, cells were kept on ice and samples were subsequently warmed to 37°C right before measurements carried out with a Fluorolog-3 spectrofluorometer (Horiba Jobin Yvon, Edison, NJ, United States). During measurements, the cuvette holder was kept at 37°C using a circulating water bath. Excitation spectra were recorded between 380 and 550 nm with the detected emission wavelength set to 660 nm in order to minimize effects of possible changes in membrane fluidity ([Clarke and Kane, 1997]). The ratio of fluorescence intensities integrated between excitation wavelengths 410–440 nm and 490–520 nm was calculated for each sample, which positively correlates with the magnitude of DP ([Clarke and Kane, 1997]; [Kovacs et al., 2017]; [Batta et al., 2020]).

[2] = system: THP-1 cells; assay: as above; conditions: fatty acid 12.5-50 μM for 48 h, result at maximal 50 μM, n = 5
Experimental: as §1

[3] = system: JY cells; assay: Penetratin uptake and endo-lysosomal escape, time-correlated flow cytometry; conditions: 50 μM fatty acid 48 h, 5 μM AFDye532- and 5 μM NF-penetratin, 37°C, compared at 900 s, n = 5
Excerpt: (§2) Penetratin ([…]-amide, molecular weight 2245.75 g/mol) was synthesized manually on TentaGel R RAM (Rapp Polymere, Tübingen, Germany), a low crosslinked polystyrene PEG copolymer resin by the solid-phase method of Merrifield with standard Fmoc chemistry, as described in detail in our recent study ([Batta et al., 2020]). After coupling the last arginine, one half of the penetratin was reacted with AFDye532 N-hydroxysuccinimide ester (molecular weight 723.77 g/mol, Fluoroprobes, Scottsdale, AZ, United States), while the other half with 5(6)-carboxynaphthofluorescein N-succinimidyl ester (molecular weight 573.51 g/mol, Darmstadt, Germany). Completion of the coupling was assessed by Kaiser test, which was followed by deprotection and release from the resin. After filtration and precipitation with cold diethyl ether, the crude products were purified by preparative reversed-phase HPLC (JASCO, Victoria, BC, Canada) on a C18 column and lyophilized. The purity of the products (>95%) was assessed by reversed-phase HPLC (JASCO) equipped with an analytical C18 column. […] These values well correlated with the predicted masses of the labeled peptides (2983.59 and 2833.33, respectively).
(§3) Total cellular penetratin uptake and endo-lysosomal escape was determined as described previously ([Batta et al., 2020]). Briefly, control THP-1 or JY cells and those treated with 50 μM ALA, GLA or SA for 48 h at 37°C were incubated in the continuous presence of 5 μM AFDye532-penetratin, 5 μM NF-penetratin and 0.25 μg/ml DAPI at 37°C in the thermostated sample holder of a FACS Aria III flow cytometer. The fluorescence intensity of DAPI was measured using an excitation at 405 nm and an emission filter 450/20 nm. AFDye532 and NF were excited at 488 and 561 nm, respectively, and their fluorescence was determined using emission filters 530/30 and 670/14 nm, respectively. Measurements started immediately after addition of DAPI and penetratin and continued for 20 min at 37°C. Experimental data were analyzed first in FCS Express. Time-correlated fluorescence intensity values of DAPI-negative living cells were exported after spectral compensation and the moving averages of samples were calculated with a window size of 10 s. […] During analysis, fluorescence intensity values were first normalized to the average intensity in the first time window, which was followed by calculation of the fluorescence ratio from the normalized values.

[4] = system: THP-1 cells; assay: as above; conditions: 50 μM fatty acid 48 h, 5 μM AFDye532- and 5 μM NF-penetratin, 37°C, compared at 900 s, n = 5
Excerpt: as §2, §3

[5] = system: JY cells; assay: Membrane dipole potential, F66 emission ratio, flow cytometry; conditions: 50 μM fatty acid 48 h, then 50 or 200 μM cholesterol 1 h, n = 5
Experimental: (§4) The human acute monocytic leukemia-derived cell line THP-1 and the human Epstein-Barr virus (EBV) transformed lymphoblastoid cell line JY were obtained from the American Type Culture Collection (Manassas, VA, United States) and cultivated according to their specifications. […] As controls, cells were treated with the corresponding amounts of native MβCD complexes not containing sterols. To study the effects of fatty acids, cells were incubated for 48 h in medium supplemented with saturated stearic acid (SA, Sigma Aldrich), ω-3 polyunsaturated α-linolenic acid (ALA, Sigma Aldrich) or ω-6 polyunsaturated γ-linolenic acid (GLA, Sigma Aldrich) at various concentrations ranging from 12.5 to 50 μM. […] After washing, the fluorescence intensities of cells were determined with a FACS Aria III flow cytometer (Becton Dickinson, Mountain View, CA, United States) at 37°C. […] Data analysis was carried out in FCS Express (De Novo Software, Los Angeles, CA, United States). The ratio of emitted intensities in the two wavelength ranges (N^∗/T^∗) was determined for each cell and the average value was calculated for each sample from the data of living cells gated on FSC-SSC dot plots. The value of N^∗/T^∗ ratio negatively correlates with the magnitude of DP ([Kovacs et al., 2017]).

[6] = system: THP-1 cells; assay: as above; conditions: n = 5; for effect of fatty acid pretreatment on cholesterol-induced DP elevation (Rem, F66): 50 μM fatty acid 48 h, then 50 or 200 μM cholesterol 1 h; for Rem, F66: fatty acid 12.5-50 μM for 48 h
Experimental: as §4

[7] = system: JY cells; assay: Membrane hydration, PY3174 generalized polarization, confocal microscopy; conditions: 200 μM sterol 1 h or 50 μM fatty acid 48 h, efficacy order 6KC > cholesterol ≥ 7DHC, effects of 7DHC and SA not statistically significant
Experimental: (§5) For these measurements, cells were labeled with 10 μM PY3174 for 20 min at room temperature. […] During processing, segmentation of images into membrane and non-membrane pixels was carried out with the manually seeded watershed algorithm using a custom-written MATLAB program as described previously ([Kovacs et al., 2017]). The average value of general polarization correlating with the degree of membrane compactness ([[…] et al., 2013]) was calculated from the data of cell membrane pixels after background subtraction using […]

[8] = system: THP-1 cells; assay: as above; conditions: 200 μM sterol 1 h or 50 μM fatty acid 48 h, efficacy order 6KC > cholesterol ≥ 7DHC, all statistically significant
Experimental: as §5

Compound | Rexc, di-8-ANEPPS [1] | Rexc, di-8-ANEPPS [2] | ratio of NF and AFDye532 intensities (endo-lysosomal escape of penetratin) vs controls [3] | ratio of NF and AFDye532 intensities (endo-lysosomal escape of penetratin) vs controls [4] | effect of fatty acid pretreatment on cholesterol-induced DP elevation (Rem, F66) [5] | effect of fatty acid pretreatment on cholesterol-induced DP elevation (Rem, F66) [6] | Rem, F66 [6] | PY3174 generalized polarization in the cell membrane (inversely correlates with membrane hydration) [7] | PY3174 generalized polarization in the cell membrane (inversely correlates with membrane hydration) [8]
CC/C=C\C/C=C\C/C=C\CCCCCCCC(=O)O [ALA, α-linolenic acid] | significantly decreased | significantly decreased | significantly increased | significantly increased | significantly decreased the DP-elevating effect of cholesterol | significantly decreased the DP-elevating effect of cholesterol | dose-dependently and significantly increased | reduced | reduced
CCCCC/C=C\C/C=C\C/C=C\CCCCC(=O)O [GLA, γ-linolenic acid] | significant increases | significant increases | no significant changes | no significant changes | a tendency to augment the cholesterol-induced DP changes | a tendency to augment the cholesterol-induced DP changes | opposite changes | reduced | reduced
